Test results published in patent US5962509A, “Dithiolylidene acetamide derivatives” (SSP Co., Ltd., priority 1997, dated 1999).

System: ovolysozyme
Experiment: AGE formation inhibitory action: formation of lysozyme dimer (crosslinking) on incubation with xylose, SDS-PAGE with silver staining
Format: biochemical
Details: 1 mg/ml ovolysozyme, 100 mM xylose, pH 7.4 phosphate-buffered saline, 37° C., 21 days; dimer (28.8 Kda) formation relative to control
Procedure: Solutions of the test compound shown in Table 1 in dimethyl sulfoxide, said solutions containing said test compound at various concentrations, were each added together with 1 mg/ml of ovolysozyme and 100 mM of xylose to a phosphate-buffered physiological saline of pH 7.4. Each reaction mixture was then incubated at 37° C. for 21 days. A portion of the reaction mixture, said portion being in a predetermined amount, was then separated by sodium lauryl sulfate-polyacrylamide gel electrophoresis (SDS-PAGE). After the electrophoresis, the gel was treated by silver staining to stain proteins. AGE formation inhibitory action of the test compound was calculated in terms of 50% inhibitory concentration by image-processing and analyzing the degree of formation of the dimer (28.8 Kda) of lysozyme (14.4 Kda) relative to that in a control, that is, a reaction mixture not added with the test compound while making use of NIH Image Ver. 1.55.

Structure (SMILES) | AGE formation inhibitory action, 50% inhibitory concentration (IC50) [µg/mL]
NN=C(N)N [Amionoguanidine, aminoguanidine] | 30
CCCN(CCC)C(=O)C(CCC(=O)O)NC(=O)C=C1SC=CS1 (centres unmarked) [Example 1, 5-(dipropylamino)-4-((2-(1,3-dithiol-2-ylidene)acetyl)amino)-5-oxopentanoic acid] | 30
